Legend:
Format in all cases: cell-based
[1] = test system: HER3-ss+4aa/Gaussia Luciferase; assay: Dox-Induced Her3-ss-Gluc Assay; details: 24 hr doxycycline induction, 293FRT/TO cells, Gaussia luciferase signal; read-out: 24 hr Dox Inducible Her3(ss + 4)Gluc 293FRT/TO: Mean IC50
How it was run: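 Compounds, diluted in DMSO/media containing doxycycline, were incubated at 37° C., 5% CO2 with cells seeded one day earlier. The cells stably express HER3-ss+4aa/Gaussia luciferase under T-REx control. Where no stereochemistry is shown, data refer to the mixture of stereoisomers.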

[2] = test system: IL-2-FL/Gaussia Luciferase; assay: Dox Induced IL2-FL-Gluc Assay; details: 24 hr doxycycline induction, 293FRT/TO cells, Gaussia luciferase signal; read-out: 24 hr Dox Inducible IL2FLGIuc 293FRT/TO: Mean IC50
How it was run: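 Compounds were added together with doxycycline in DMSO/media and incubated at 37° C., 5% CO2. The cells were a stably selected line carrying IL-2-FL/Gaussia luciferase under T-REx inducible control. Structures drawn without stereochemistry were tested as stereoisomer mixtures.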

[3] = test system: PD1-ss+10aa/Gaussia Luciferase; assay: Dox-Induced PD1-ss-Gluc Assay; details: 24 hr doxycycline induction, 293FRT/TO cells, Gaussia luciferase signal; read-out: 24 hr Dox Inducible PD1ssGluc 293FRT/TO: Mean IC50
How it was run: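 Compounds, diluted in DMSO/media with doxycycline, were added to cells plated a day earlier and kept at 37° C under 5% CO2. The cells stably express a Gaussia luciferase construct fused to PD1-ss+10aa, induced via the T-REx system. Unassigned stereochemistry means mixture data.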

[4] = test system: TNFα-FL/Gaussia Luciferase; assay: Dox Induced TNFα-FL-Gluc Assay; details: 24 hr doxycycline induction, 293FRT/TO cells, Gaussia luciferase signal; read-out: 24 hr Dox Inducible TNFaFLGluc 293FRT/TO: Mean IC50
How it was run: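 Compounds were added in doxycycline-containing DMSO/media to cells plated the previous day and incubated at 37° C under 5% CO2. These cells stably express a TNFα-FL/Gaussia luciferase cDNA whose expression is under T-REx (Dox-inducible) control, selected with Hygromycin and Blasticidin.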

[5] = test system: human multiple myeloma cell line U266B1; assay: U266 Cell Viability Assay; details: U-266, 48 hr, U266B1 cells, Celltiter-Glo, read-out: 48 hr U266 Viability Celltiter-Glo: Mean EC50
How it was run: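 Viability measured by CellTiter-Glo luciferase signal after 48 h compound exposure (37 °C, 5% CO2) of U266B1 cells in 384-well format. Where stereochemistry is not shown, data refer to the stereoisomer mixture.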

[6] = test system: human multiple myeloma cell line NCI-H929; assay: H929 Cell Viability Assay; details: 48 hr, NCI-H929 cells, Celltiter-Glo, read-out: 48 hr H929 Viability Celltiter-Glo: Mean EC50
Experimental: Plates were incubated at 37° C., 5% CO2 for 48 hours. After 48 hours, Celltiter-Glo® (Promega) was added to each well and luciferase signal was quantified using Tecan Infinite M1000 Pro for cell viability determination.
For chemical structures that include one or more stereoisomers, but are illustrated without indicating stereochemistry, the assay data refers to a mixture of stereoisomers.

SMILES | IC50 [1] | IC50 [2] | IC50 [3] | IC50 [4] | EC50 [5] | EC50 [6]
Cc1nc(NC(=O)c2cccn2Cc2ccncc2)sc1C [Compound A58, N-(4,5-dimethylthiazol-2-yl)-1-(pyridin-4-ylmethyl)-1H-pyrrole-2-carboxamide] | 3.53 µM | 7.06 µM | 1.5 µM | > 25 µM | > 25 µM | > 25 µM
CC(C)OCc1csc(NC(=O)c2cccn2Cc2ccncc2)n1 [Compound A59, N-(4-(isopropoxymethyl)thiazol-2-yl)-1-(pyridin-4-ylmethyl)-1H-pyrrole-2-carboxamide] | 11.9 µM | 3.62 µM | 1.51 µM | 16.6 µM | > 25 µM | > 25 µM
O=C(Nc1nc2ccsc2s1)c1cccn1Cc1ccncc1 [Compound A60] | 3.75 µM | 2.69 µM | 1.57 µM | > 25 µM | > 25 µM | > 25 µM
CC(C)OC(C)(C)c1csc(NC(=O)c2cccn2C(C)c2ccncc2)n1 (stereo not drawn) [Compound A61] | 3.41 µM | 2.38 µM | 1.67 µM | > 25 µM | > 25 µM | > 25 µM
CCCc1cnc(NC(=O)c2cccn2Cc2ccncc2)s1 [Compound A62] | 4.3 µM | 5.07 µM | 1.69 µM | > 25 µM | > 25 µM | > 25 µM
Cc1csc(NC(=O)c2cccn2Cc2ccncc2)n1 [Compound A63, N-(4-methylthiazol-2-yl)-1-(pyridin-4-ylmethyl)-1H-pyrrole-2-carboxamide] | 10.6 µM | > 25 µM | 1.72 µM | > 25 µM | > 25 µM | > 25 µM
CC(C)OC(C)(C)c1csc(NC(=O)c2cccn2CCCc2ccccc2)n1 [Compound A64, N-(4-(2-isopropoxypropan-2-yl)thiazol-2-yl)-1-(3-phenylpropyl)-1H-pyrrole-2-carboxamide] | 3.48 µM | 2.72 µM | 1.73 µM | > 25 µM | > 25 µM | 23.2 µM
CCc1cnc(NC(=O)c2cccn2Cc2ccncc2)s1 [Compound A65] | 4.13 µM | 11.2 µM | 1.79 µM | > 25 µM | > 25 µM | > 25 µM
CCc1nc(NC(=O)c2cccn2Cc2ccncc2Cl)sc1C [Compound A66, 1-((3-chloropyridin-4-yl)methyl)-N-(4-ethyl-5-methylthiazol-2-yl)-1H-pyrrole-2-carboxamide] | 4.15 µM | 4.78 µM | 1.84 µM | > 25 µM | > 25 µM | > 25 µM
CC1(c2csc(NC(=O)c3cccn3Cc3ccncc3)n2)CC1 [Compound A67, N-(4-(1-methylcyclopropyl)thiazol-2-yl)-1-(pyridin-4-ylmethyl)-1H-pyrrole-2-carboxamide] | 3.24 µM | 2.08 µM | 1.88 µM | > 25 µM | > 25 µM | > 25 µM
CC(C)OC(C)(C)c1csc(NC(=O)c2cccn2CCCc2ccccc2Cl)n1 [Compound A68, 1-(3-(2-chlorophenyl)propyl)-N-(4-(2-isopropoxypropan-2-yl)thiazol-2-yl)-1H-pyrrole-2-carboxamide] | 2.73 µM | 2.76 µM | 2.07 µM | > 25 µM | > 25 µM | > 25 µM
CC(C)OC(C)(C)c1csc(NC(=O)c2cccn2Cc2ccnnc2)n1 [Compound A69, N-(4-(2-isopropoxypropan-2-yl)thiazol-2-yl)-1-(pyridazin-4-ylmethyl)-1H-pyrrole-2-carboxamide] | 6.22 µM | 4.17 µM | 2.08 µM | > 25 µM | > 25 µM | > 25 µM
COc1cc(Cn2cccc2C(=O)Nc2nc(C(C)(C)OC(C)C)cs2)cc(F)n1 [Compound A70, 1-((2-fluoro-6-methoxypyridin-4-yl)methyl)-N-(4-(2-isopropoxypropan-2-yl)thiazol-2-yl)-1H-pyrrole-2-carboxamide] | 9.39 µM | 5.67 µM | 2.23 µM | > 25 µM | > 25 µM | > 25 µM
CC(C)OC(C)(C)c1csc(NC(=O)c2cccn2CC2CCOCC2)n1 [Compound A71] | 5.44 µM | 3.54 µM | 2.28 µM | > 25 µM | > 25 µM | > 25 µM
Cc1cnc(NC(=O)c2cccn2Cc2ccncc2)s1 [Compound A72, N-(5-methylthiazol-2-yl)-1-(pyridin-4-ylmethyl)-1H-pyrrole-2-carboxamide] | 6.11 µM | 22.4 µM | 2.47 µM | > 25 µM | > 25 µM | > 25 µM
Cc1ccc2nc(NC(=O)c3cccn3Cc3ccncc3)sc2c1 [Compound A73] | 7.28 µM | 2.02 µM | 2.47 µM | > 25 µM | > 25 µM | > 25 µM
CC(C)OC(C)(C)c1csc(NC(=O)c2cccn2[C@@H](C)c2ccncc2)n1 [Compound A74, (S)-N-(4-(2-isopropoxypropan-2-yl)thiazol-2-yl)-1-(1-(pyridin-4-yl)ethyl)-1H-pyrrole-2-carboxamide] | 5.39 µM | 4.22 µM | 2.57 µM | > 25 µM | > 25 µM | > 25 µM
Cc1ccc(C(=O)Nc2nc(C(C)(C)OC(C)C)cs2)n1Cc1ccncc1 [Compound A76, N-(4-(2-isopropoxypropan-2-yl)thiazol-2-yl)-5-methyl-1-(pyridin-4-ylmethyl)-1H-pyrrole-2-carboxamide] | 12.5 µM | 3.99 µM | 2.73 µM | > 25 µM | > 25 µM | > 25 µM
CC(C)(C)c1csc(NC(=O)c2cccn2Cc2ccncc2Cl)n1 [Compound A77, N-(4-(tert-butyl)thiazol-2-yl)-1-((3-chloropyridin-4-yl)methyl)-1H-pyrrole-2-carboxamide] | 4.68 µM | 3.1 µM | 3.05 µM | > 25 µM | > 25 µM | 25 µM
CC(C)OC(C)(C)c1csc(NC(=O)c2cccn2Cc2ccccc2Cl)n1 [Compound A78] | 7.88 µM | 6.38 µM | 3.16 µM | > 25 µM | > 25 µM | 20.9 µM
CC(C)OC(C)(C)c1csc(NC(=O)c2cccn2Cc2ccccc2)n1 [Compound A79, 1-benzyl-N-(4-(2-isopropoxypropan-2-yl)thiazol-2-yl)-1H-pyrrole-2-carboxamide] | 5.26 µM | 4.15 µM | 3.18 µM | > 25 µM | > 25 µM | 24.9 µM
CC(C)OC(C)(C)c1csc(NC(=O)c2cccn2Cc2ccc(C#N)cc2)n1 [Compound A80, 1-(4-cyanobenzyl)-N-(4-(2-isopropoxypropan-2-yl)thiazol-2-yl)-1H-pyrrole-2-carboxamide] | 7.88 µM | 3.53 µM | 4.22 µM | > 25 µM | > 25 µM | 21.9 µM
COCc1csc(NC(=O)c2cccn2Cc2ccncc2)n1 [Compound A81] | 23 µM | > 25 µM | 4.62 µM | > 25 µM | > 25 µM | > 25 µM
COc1cnc(NC(=O)c2cccn2Cc2ccncc2)s1 [Compound A82] | > 25 µM | > 25 µM | 4.66 µM | > 25 µM | > 25 µM | > 25 µM
Cc1cc(Cn2cccc2C(=O)Nc2nc(C(C)(C)OC(C)C)cs2)ccn1 [Compound A83, N-(4-(2-isopropoxypropan-2-yl)thiazol-2-yl)-1-((2-methylpyridin-4-yl)methyl)-1H-pyrrole-2-carboxamide] | > 25 µM | 4.52 µM | 5.37 µM | > 25 µM | > 25 µM | > 25 µM
